Source: ChEMBL document CHEMBL4000200, “Structure-activity relationships of 4-hydroxy-4-biaryl-proline acylsulfonamide tripeptides: A series of potent NS3 protease inhibitors for the treatment of hepatitis C virus” (Bioorg Med Chem Lett, 2017)

Tests used:
[1] = Inhibition of HCV genotype 1a NS3/4A protease; design: species or system Hepatitis C virus subtype 1a
[2] = tested on: Hepatitis C virus; assay: Antiviral activity against HCV genotype 1b by cell based replicon assay; type: functional, Hepacivirus hominis
[3] = Permeability of the compound at pH 5.5 by PAMPA; type: physicochemical; conditions: read-out: permeability
[4] = Permeability of the compound at pH 7.4 by PAMPA; type: physicochemical; conditions: read-out: permeability
[5] = AUC in id dosed rat plasma after 4 hrs; type: ADME, organism-based; design: time < 4 hr
[6] = Drug uptake in id dosed rat liver after 4 hrs; type: ADME, organism-based; conditions: read-out: Drug uptake
[7] = tested on: Heart; assay: Cardiotoxicity in Langendorff perfused rabbit heart assessed as heart rate at 10 uM perfused for 10 mins (reference value: -1 +/- 1%); type: toxicity, tissue-based, Oryctolagus cuniculus
[8] = tested on: Heart; assay: Cardiotoxicity in Langendorff perfused rabbit heart assessed as heart rate at 10 uM perfused for 20 mins (reference value: -3 +/- 3%); type: toxicity, tissue-based, Oryctolagus cuniculus
[9] = tested on: Heart; assay: Cardiotoxicity in Langendorff perfused rabbit heart assessed as sinoatrial node recovery time at 10 uM perfused for 10 mins (reference value: 3 +/- 1%); type: toxicity, tissue-based, Oryctolagus cuniculus
[10] = tested on: Heart; assay: Cardiotoxicity in Langendorff perfused rabbit heart assessed as sinoatrial node recovery time at 10 uM perfused for 20 mins (reference value: 4 +/- 5%); type: toxicity, tissue-based, Oryctolagus cuniculus
[11] = tested on: Heart; assay: Cardiotoxicity in Langendorff perfused rabbit heart assessed as coronary flow at 10 uM perfused for 10 mins (reference value: -4 +/- 6%); type: toxicity, tissue-based, Oryctolagus cuniculus
[12] = tested on: Heart; assay: Cardiotoxicity in Langendorff perfused rabbit heart assessed as coronary flow at 10 uM perfused for 20 mins (reference value: -6 +/- 8%); type: toxicity, tissue-based, Oryctolagus cuniculus
[13] = Oral bioavailability in rat at 15 mg/kg after 24 hrs; type: ADME, organism-based; conditions: in vivo
[14] = AUC in rat at 15 mg/kg, po after 24 hrs; type: ADME, organism-based; design: dose 15 mg/kg, time < 24 hr, route oral; conditions: in vivo
[15] = Clearance in rat at 5 mg/kg, iv; type: ADME, organism-based; conditions: in vivo
[16] = Half life in rat at 5 mg/kg, iv; type: ADME, organism-based; conditions: in vivo
[17] = Drug uptake in rat liver at 15 mg/kg, po after 24 hrs; type: ADME, organism-based; conditions: read-out: Drug uptake

## C=C[C@@H]1C[C@]1(NC(=O)[C@@H]1C[C@@](O)(c2cccc(C(C)C)c2)CN1C(=O)[C@@H](NC(=O)OC(C)(C)C)C(C)(C)C)C(=O)NS(=O)(=O)C1CC1
[1]
  IC50: 703 nM
[2]
  EC50: 8370 nM

## C=C[C@@H]1C[C@]1(NC(=O)[C@@H]1C[C@@](O)(c2nc3ccccc3s2)CN1C(=O)[C@@H](NC(=O)OC(C)(C)C)C(C)(C)C)C(=O)NS(=O)(=O)C1CC1
[1]
  IC50: 127 nM
[2]
  EC50: 1120 nM

## C=C[C@@H]1C[C@]1(NC(=O)[C@@H]1C[C@@H](Oc2nccc3cc(OC)ccc23)CN1C(=O)[C@@H](NC(=O)OC(C)(C)C)C(C)(C)C)C(=O)NS(=O)(=O)C1CC1
[1]
  IC50: 1 to 2 nM
[3]
  Papp: 57.4 ×10⁻⁶ cm/s
[4]
  Papp: 17.8 ×10⁻⁶ cm/s
[5]
  AUC at 4 h: 10.4 µM·h
[6]
  concentration at 4 h: 64700 ng/g
[7]
  Activity: -13%
[8]
  Activity: -32%
[9]
  Activity: 69%
[10]
  Activity: 360%
[11]
  Activity: 12%
[12]
  Activity: 10%

## C=C[C@@H]1C[C@]1(NC(=O)[C@@H]1C[C@@](O)(c2cccc(F)c2)CN1C(=O)[C@@H](NC(=O)OC(C)(C)C)C(C)(C)C)C(=O)NS(=O)(=O)C1CC1
[1]
  IC50: 57 nM
[2]
  EC50: 4060 nM

## C=C[C@@H]1C[C@]1(NC(=O)[C@@H]1C[C@@](O)(c2ccc(Oc3ccccc3)cc2)CN1C(=O)[C@@H](NC(=O)OC(C)(C)C)C(C)(C)C)C(=O)NS(=O)(=O)C1CC1
[1]
  IC50: 50 nM
[2]
  EC50: 265 nM

## C=C[C@@H]1C[C@]1(NC(=O)[C@@H]1C[C@@](O)(c2cccc(Cl)c2)CN1C(=O)[C@@H](NC(=O)OC(C)(C)C)C(C)(C)C)C(=O)NS(=O)(=O)C1CC1
[1]
  IC50: 80 nM
[2]
  EC50: 3660 nM

## C=C[C@@H]1C[C@]1(NC(=O)[C@@H]1C[C@@](OC)(c2ccc(-c3ccccc3)cc2)CN1C(=O)[C@@H](NC(=O)OC(C)(C)C)C(C)(C)C)C(=O)NS(=O)(=O)C1CC1
[1]
  IC50: 2 nM
[2]
  EC50: 9 nM
[3]
  Papp: 38.1 ×10⁻⁶ cm/s
[4]
  Papp: 43.8 ×10⁻⁶ cm/s
[5]
  AUC at 4 h: 2.45 µM·h
[6]
  concentration at 4 h: 195000 ng/g
[13]
  bioavailability: 58%
[14]
  AUC at 24 h: 14.1 µM·h
[15]
  clearance: 17.8 mL/min/kg
[16]
  half-life: 4.6 h
[17]
  concentration at 24 h: 1100 nM
[7]
  Activity: -6%
[8]
  Activity: -3%
[9]
  Activity: 8%
[10]
  Activity: 7%
[11]
  Activity: 27%
[12]
  Activity: 20%

## C=C[C@@H]1C[C@]1(NC(=O)[C@@H]1C[C@@H](Oc2ncc(OC)c3ccc(Cl)cc23)CN1C(=O)[C@@H](NC(=O)OC(C)(C)C)C(C)(C)C)C(=O)NS(=O)(=O)C1CC1
[7]
  Activity: 1%
[8]
  Activity: -1%
[9]
  Activity: -1%
[10]
  Activity: 4%
[11]
  Activity: -3%
[12]
  Activity: -1%

## C=C[C@@H]1C[C@]1(NC(=O)[C@@H]1C[C@@](O)(c2ccc(-c3ccccc3OC)cc2)CN1C(=O)[C@@H](NC(=O)OC(C)(C)C)C(C)(C)C)C(=O)NS(=O)(=O)C1CC1
[1]
  IC50: 5 nM
[2]
  EC50: 24 nM

## C=CC[C@]1(O)C[C@@H](C(=O)N[C@]2(C(=O)NS(=O)(=O)C3CC3)C[C@H]2C=C)N(C(=O)[C@@H](NC(=O)OC(C)(C)C)C(C)(C)C)C1
[1]
  IC50: 1500 nM
[2]
  EC50: 30500 nM

## C=C[C@@H]1C[C@]1(NC(=O)[C@@H]1C[C@@](O)(c2cc(C)ccc2C)CN1C(=O)[C@@H](NC(=O)OC(C)(C)C)C(C)(C)C)C(=O)NS(=O)(=O)C1CC1
[1]
  IC50: 136 nM
[2]
  EC50: 2310 nM

## C=C[C@@H]1C[C@]1(NC(=O)[C@@H]1C[C@@](O)(c2cccc(N(C)C)c2)CN1C(=O)[C@@H](NC(=O)OC(C)(C)C)C(C)(C)C)C(=O)NS(=O)(=O)C1CC1
[1]
  IC50: 960 nM
[2]
  EC50: 3400 nM

## C=C[C@@H]1C[C@]1(NC(=O)[C@@H]1C[C@@](O)(c2cccc(C)c2)CN1C(=O)[C@@H](NC(=O)OC(C)(C)C)C(C)(C)C)C(=O)NS(=O)(=O)C1CC1
[1]
  IC50: 76 nM
[2]
  EC50: 3270 nM

## C=C[C@@H]1C[C@]1(NC(=O)[C@@H]1C[C@@](O)(c2ccc(OC)cc2)CN1C(=O)[C@@H](NC(=O)OC(C)(C)C)C(C)(C)C)C(=O)NS(=O)(=O)C1CC1
[1]
  IC50: 105 nM
[2]
  EC50: 1470 nM

## C=C[C@@H]1C[C@]1(NC(=O)[C@@H]1C[C@@](O)(c2cccc(OC)c2)CN1C(=O)[C@@H](NC(=O)OC(C)(C)C)C(C)(C)C)C(=O)NS(=O)(=O)C1CC1
[1]
  IC50: 52 nM
[2]
  EC50: 3700 nM

## C=C[C@@H]1C[C@]1(NC(=O)[C@@H]1C[C@@](O)(c2cccc(CN3CCOCC3)c2)CN1C(=O)[C@@H](NC(=O)OC(C)(C)C)C(C)(C)C)C(=O)NS(=O)(=O)C1CC1
[1]
  IC50: 162 nM
[2]
  EC50: 3460 nM

## C=C[C@@H]1C[C@]1(NC(=O)[C@@H]1C[C@@](O)(c2cccc(-c3ccc(OC)cc3)c2)CN1C(=O)[C@@H](NC(=O)OC(C)(C)C)C(C)(C)C)C(=O)NS(=O)(=O)C1CC1
[1]
  IC50: 620 nM
[2]
  EC50: 3210 nM

## C=C[C@@H]1C[C@]1(NC(=O)[C@@H]1C[C@@](O)(c2ccc(C)c(F)c2)CN1C(=O)[C@@H](NC(=O)OC(C)(C)C)C(C)(C)C)C(=O)NS(=O)(=O)C1CC1
[1]
  IC50: 568 nM
[2]
  EC50: 4240 nM

## C=C[C@@H]1C[C@]1(NC(=O)[C@@H]1C[C@@](O)(c2ccccc2)CN1C(=O)[C@@H](NC(=O)OC(C)(C)C)C(C)(C)C)C(=O)NS(=O)(=O)C1CC1
[1]
  IC50: 140 nM
[2]
  EC50: 2360 nM

## C=C[C@@H]1C[C@]1(NC(=O)[C@@H]1C[C@@](O)(c2cccc(OC(C)C)c2)CN1C(=O)[C@@H](NC(=O)OC(C)(C)C)C(C)(C)C)C(=O)NS(=O)(=O)C1CC1
[1]
  IC50: 101 nM
[2]
  EC50: 6250 nM

## C=C[C@@H]1C[C@]1(NC(=O)[C@@H]1C[C@@](O)(c2cc(C)cc(C)c2)CN1C(=O)[C@@H](NC(=O)OC(C)(C)C)C(C)(C)C)C(=O)NS(=O)(=O)C1CC1
[1]
  IC50: 80 nM
[2]
  EC50: 6450 nM

## C=C[C@@H]1C[C@]1(NC(=O)[C@@H]1C[C@@](O)(c2ccc(F)c(C)c2)CN1C(=O)[C@@H](NC(=O)OC(C)(C)C)C(C)(C)C)C(=O)NS(=O)(=O)C1CC1
[1]
  IC50: 134 nM
[2]
  EC50: 7700 nM

## C=C[C@@H]1C[C@]1(NC(=O)[C@@H]1C[C@@](O)(c2ccc(-c3ccccc3)cc2)CN1C(=O)[C@@H](NC(=O)OC(C)(C)C)C(C)(C)C)C(=O)NS(=O)(=O)C1CC1
[1]
  IC50: 4 nM
[2]
  EC50: 22 to 26 nM
[3]
  Papp: 7.9 ×10⁻⁶ cm/s
[4]
  Papp: 21.1 ×10⁻⁶ cm/s
[5]
  AUC at 4 h: 0.9 µM·h
[6]
  concentration at 4 h: 128 ng/g
[7]
  Activity: -2%
[8]
  Activity: -4%
[9]
  Activity: 2%
[10]
  Activity: 7%
[11]
  Activity: 2%
[12]
  Activity: -2%

## C=C[C@@H]1C[C@]1(NC(=O)[C@@H]1C[C@@](O)(c2ccc(-n3cccc3)cc2)CN1C(=O)[C@@H](NC(=O)OC(C)(C)C)C(C)(C)C)C(=O)NS(=O)(=O)C1CC1
[1]
  IC50: 7 nM
[2]
  EC50: 97 nM

## C=C[C@@H]1C[C@]1(NC(=O)[C@@H]1C[C@@](O)(c2ccc(-c3ccccn3)cc2)CN1C(=O)[C@@H](NC(=O)OC(C)(C)C)C(C)(C)C)C(=O)NS(=O)(=O)C1CC1
[1]
  IC50: 2 nM
[2]
  EC50: 39 nM

## C=C[C@@H]1C[C@]1(NC(=O)[C@@H]1C[C@@](O)(c2ccc(-c3nccs3)cc2)CN1C(=O)[C@@H](NC(=O)OC(C)(C)C)C(C)(C)C)C(=O)NS(=O)(=O)C1CC1
[1]
  IC50: 2 nM
[2]
  EC50: 41 nM

## C=C[C@@H]1C[C@]1(NC(=O)[C@@H]1C[C@@](O)(c2cc(F)ccc2OC)CN1C(=O)[C@@H](NC(=O)OC(C)(C)C)C(C)(C)C)C(=O)NS(=O)(=O)C1CC1
[1]
  IC50: 728 nM
[2]
  EC50: 3940 nM

## C=C[C@@H]1C[C@]1(NC(=O)[C@@H]1C[C@@](O)(c2ccc3ccccc3c2)CN1C(=O)[C@@H](NC(=O)OC(C)(C)C)C(C)(C)C)C(=O)NS(=O)(=O)C1CC1
[1]
  IC50: 26 nM
[2]
  EC50: 412 nM

## C=C[C@@H]1C[C@]1(NC(=O)[C@@H]1C[C@@](O)(c2ccc(F)cc2)CN1C(=O)[C@@H](NC(=O)OC(C)(C)C)C(C)(C)C)C(=O)NS(=O)(=O)C1CC1
[1]
  IC50: 190 nM
[2]
  EC50: 2470 nM

## C=C[C@@H]1C[C@]1(NC(=O)[C@@H]1C[C@@](O)(c2ccccc2CN2CCOCC2)CN1C(=O)[C@@H](NC(=O)OC(C)(C)C)C(C)(C)C)C(=O)NS(=O)(=O)C1CC1
[1]
  IC50: 291 nM
[2]
  EC50: 4950 nM

## C=C[C@@H]1C[C@]1(NC(=O)[C@@H]1CC(=O)CN1C(=O)[C@@H](NC(=O)OC(C)(C)C)C(C)(C)C)C(=O)NS(=O)(=O)C1CC1
[1]
  IC50: 3900 nM
[2]
  EC50: 70700 nM
